According to patent US20040006070A1, “Intraspinal continuous infusion of midazolam hydrochloride for the treatment of pain” (priority 2002, published 2004):
Counter-ions that a name gives are not always drawn.

Test: Bloodwork: complete blood count, electrolytes, extended blood chemistry
Format: in vivo, sheep
Conditions: for Total Bili: ref 0.14-0.32; for Creatinine: ref 1-2.7; for Albumin: ref 2.4-3; for K+: ref 3.9-5.4; for Phos: ref 5-7.3; for Total Prot: ref 6-7.9
Description: Indirect blood pressure, pulse recording, pain testing (mechanical stimulus device, cold and warm water baths see description in procedure) and weight were taken on days 1, 3, 7, 15, 22, 29, 36, and 43. Venous blood samples (15 ml drawn from the jugular vein with Vacutainer brand blood collection tubes) for complete blood count, electrolytes, and extended blood chemistry were drawn on days 1, 15, and 43 (mild procedure only light hand restraint necessary).

With `Cc1ncc2n1-c1ccc(Cl)cc1C(c1ccccc1F)=NC2` [Midazolam, midazolam hydrochloride] the AST (sheep #473, 3 mg/day, Day 1) was 239 U/L, the “Alk Phos” value (sheep #473, 3 mg/day, Day 1) was 41 U/L and the BUN (sheep #473, 3 mg/day, Day 1) was 10 mg/dL. The CPK (sheep #473, 3 mg/day, Day 1) was 392 U/L, the Cholesterol (sheep #473, 3 mg/day, Day 1) was 72 mg/dL and the “Differential Count: Eosin” value (sheep #473, 3 mg/day, Day 1) was 1%. For the same compound, the “Differential Count: Lymph” value (sheep #473, 3 mg/day, Day 1) was 39%, the “Differential Count: Mono” value (sheep #473, 3 mg/day, Day 1) was 1% and the “Differential Count: Seg” value (sheep #473, 3 mg/day, Day 1) was 59%. For the same compound, the “Gamma GT” value (sheep #473, 3 mg/day, Day 1) was 69 U/L, the Glucose (sheep #473, 3 mg/day, Day 1) was 91 mg/dL and the Hct (sheep #473, 3 mg/day, Day 1) was 33.0%. For the same compound, the Hgb (sheep #473, 3 mg/day, Day 1) was 11.3 g/dL, the MCH (sheep #473, 3 mg/day, Day 1) was 9.7 pg and the MCHC (sheep #473, 3 mg/day, Day 1) was 32.2 G/dl. The MCV (sheep #473, 3 mg/day, Day 1) was 30.0 fL, the “Na+” value (sheep #473, 3 mg/day, Day 1) was 153 mEq/l and the “Platlet Count” value (sheep #473, 3 mg/day, Day 1) was 666000 µL⁻¹. The RBC (sheep #473, 3 mg/day, Day 1) was 1.1e+07 µL⁻¹, the WBC (sheep #473, 3 mg/day, Day 1) was 5800 µL⁻¹ and the “Total Bili” value (sheep #473, 3 mg/day, Day 1) was 0.2 mg/dL. The Creatinine (sheep #473, 3 mg/day, Day 1) was 1.0 mg/dL, the Albumin (sheep #473, 3 mg/day, Day 1) was 3.4 g/dL and the “K+” value (sheep #473, 3 mg/day, Day 1) was 4.4 mEq/l. The Phos (sheep #473, 3 mg/day, Day 1) was 6.9 mg/dL, the “Total Prot” value (sheep #473, 3 mg/day, Day 1) was 6.5 g/dL and the ALT (sheep #473, 3 mg/day, Day 15) was 1 U/L. For the same compound, the AST (sheep #473, 3 mg/day, Day 15) was 85 U/L, the “Alk Phos” value (sheep #473, 3 mg/day, Day 15) was 59 U/L and the BUN (sheep #473, 3 mg/day, Day 15) was 10 mg/dL. For the same compound, the CPK (sheep #473, 3 mg/day, Day 15) was 98 U/L, the Cholesterol (sheep #473, 3 mg/day, Day 15) was 79 mg/dL and the “Differential Count: Eosin” value (sheep #473, 3 mg/day, Day 15) was 6%. The “Differential Count: Lymph” value (sheep #473, 3 mg/day, Day 15) was 53%, the “Differential Count: Mono” value (sheep #473, 3 mg/day, Day 15) was 1% and the “Differential Count: Seg” value (sheep #473, 3 mg/day, Day 15) was 40%. The “Gamma GT” value (sheep #473, 3 mg/day, Day 15) was 59 U/L, the Glucose (sheep #473, 3 mg/day, Day 15) was 74 mg/dL and the Hct (sheep #473, 3 mg/day, Day 15) was 41.0%. It also gave a Hgb (sheep #473, 3 mg/day, Day 15) of 12.9 g/dL, an MCH (sheep #473, 3 mg/day, Day 15) of 9.3 pg and an MCHC (sheep #473, 3 mg/day, Day 15) of 31.5 G/dl. The MCV (sheep #473, 3 mg/day, Day 15) was 29.6 fL, the “Na+” value (sheep #473, 3 mg/day, Day 15) was 152 mEq/l and the “Platlet Count” value (sheep #473, 3 mg/day, Day 15) was 336000 µL⁻¹. For the same compound, the RBC (sheep #473, 3 mg/day, Day 15) was 1.25e+07 µL⁻¹, the WBC (sheep #473, 3 mg/day, Day 15) was 5100 µL⁻¹ and the “Total Bili” value (sheep #473, 3 mg/day, Day 15) was 0.1 mg/dL. The Creatinine (sheep #473, 3 mg/day, Day 15) was 1.2 mg/dL, the Albumin (sheep #473, 3 mg/day, Day 15) was 3.7 g/dL and the “K+” value (sheep #473, 3 mg/day, Day 15) was 4.6 mEq/l. For the same compound, the Phos (sheep #473, 3 mg/day, Day 15) was 5.8 mg/dL, the “Total Prot” value (sheep #473, 3 mg/day, Day 15) was 6.7 g/dL and the ALT (sheep #473, 3 mg/day, Day 43) was 8 U/L. For the same compound, the AST (sheep #473, 3 mg/day, Day 43) was 61 U/L, the “Alk Phos” value (sheep #473, 3 mg/day, Day 43) was 73 U/L and the BUN (sheep #473, 3 mg/day, Day 43) was 15 mg/dL. For the same compound, the CPK (sheep #473, 3 mg/day, Day 43) was 82 U/L, the Cholesterol (sheep #473, 3 mg/day, Day 43) was 78 mg/dL and the “Differential Count: Eosin” value (sheep #473, 3 mg/day, Day 43) was 2%. For the same compound, the “Differential Count: Lymph” value (sheep #473, 3 mg/day, Day 43) was 60%, the “Differential Count: Mono” value (sheep #473, 3 mg/day, Day 43) was 2% and the “Differential Count: Seg” value (sheep #473, 3 mg/day, Day 43) was 36%. The “Gamma GT” value (sheep #473, 3 mg/day, Day 43) was 58 U/L, the Glucose (sheep #473, 3 mg/day, Day 43) was 59 mg/dL and the Hct (sheep #473, 3 mg/day, Day 43) was 41.5%. The Hgb (sheep #473, 3 mg/day, Day 43) was 12.9 g/dL, the MCH (sheep #473, 3 mg/day, Day 43) was 9.4 pg and the MCHC (sheep #473, 3 mg/day, Day 43) was 31.1 G/dl. For the same compound, the MCV (sheep #473, 3 mg/day, Day 43) was 30.2 fL, the “Na+” value (sheep #473, 3 mg/day, Day 43) was 150 mEq/l and the “Platlet Count” value (sheep #473, 3 mg/day, Day 43) was 263000 µL⁻¹. For the same compound, the RBC (sheep #473, 3 mg/day, Day 43) was 1.373e+07 µL⁻¹, the WBC (sheep #473, 3 mg/day, Day 43) was 3400 µL⁻¹ and the “Total Bili” value (sheep #473, 3 mg/day, Day 43) was 0.0 mg/dL. For the same compound, the Creatinine (sheep #473, 3 mg/day, Day 43) was 1.5 mg/dL, the Albumin (sheep #473, 3 mg/day, Day 43) was 3.4 g/dL and the “K+” value (sheep #473, 3 mg/day, Day 43) was 5.6 mEq/l. The Phos (sheep #473, 3 mg/day, Day 43) was 5.3 mg/dL, the “Total Prot” value (sheep #473, 3 mg/day, Day 43) was 6.4 g/dL and the ALT (sheep #498, 10 mg/day, Day 1) was 8.0 U/L. The AST (sheep #498, 10 mg/day, Day 1) was 95 U/L, the “Alk Phos” value (sheep #498, 10 mg/day, Day 1) was 45 U/L and the BUN (sheep #498, 10 mg/day, Day 1) was 9.0 Mg/dl. For the same compound, the CPK (sheep #498, 10 mg/day, Day 1) was 89 U/L, the Cholesterol (sheep #498, 10 mg/day, Day 1) was 63 Mg/dl and the “Differential Count: Atyp lym” value (sheep #498, 10 mg/day, Day 1) was 2%. The “Differential Count: Baso” value (sheep #498, 10 mg/day, Day 1) was 1%, the “Differential Count: Lymph” value (sheep #498, 10 mg/day, Day 1) was 28% and the “Differential Count: Mono” value (sheep #498, 10 mg/day, Day 1) was 1%. The “Differential Count: Seg” value (sheep #498, 10 mg/day, Day 1) was 68%, the “Gamma GT” value (sheep #498, 10 mg/day, Day 1) was 74 U/L and the Glucose (sheep #498, 10 mg/day, Day 1) was 131 mg/dL. For the same compound, the Hct (sheep #498, 10 mg/day, Day 1) was 31.0%, the Hgb (sheep #498, 10 mg/day, Day 1) was 11.1 g/dL and the MCH (sheep #498, 10 mg/day, Day 1) was 9.6 pg. The MCHC (sheep #498, 10 mg/day, Day 1) was 32.0 g/dL, the MCV (sheep #498, 10 mg/day, Day 1) was 30.1 fL and the “Na+” value (sheep #498, 10 mg/day, Day 1) was 151 mEq/l. For the same compound, the “Platlet Count” value (sheep #498, 10 mg/day, Day 1) was 592000 µL⁻¹, the RBC (sheep #498, 10 mg/day, Day 1) was 1.153e+07 µL⁻¹ and the WBC (sheep #498, 10 mg/day, Day 1) was 6000 µL⁻¹. The “Total Bili” value (sheep #498, 10 mg/day, Day 1) was 0.2 mg/dL, the Creatinine (sheep #498, 10 mg/day, Day 1) was 1.6 mg/dL and the Albumin (sheep #498, 10 mg/day, Day 1) was 3.9 g/dL. The “K+” value (sheep #498, 10 mg/day, Day 1) was 4.4 mEq/l, the Phos (sheep #498, 10 mg/day, Day 1) was 3.8 Mg/dl and the “Total Prot” value (sheep #498, 10 mg/day, Day 1) was 6.4 g/dL. For the same compound, the ALT (sheep #498, 10 mg/day, Day 15) was 7.0 U/L, the AST (sheep #498, 10 mg/day, Day 15) was 86 U/L and the “Alk Phos” value (sheep #498, 10 mg/day, Day 15) was 87 U/L. The BUN (sheep #498, 10 mg/day, Day 15) was 16 Mg/dl, the CPK (sheep #498, 10 mg/day, Day 15) was 154 U/L and the Cholesterol (sheep #498, 10 mg/day, Day 15) was 63 Mg/dl. For the same compound, the “Differential Count: Bands” value (sheep #498, 10 mg/day, Day 15) was 8%, the “Differential Count: Lymph” value (sheep #498, 10 mg/day, Day 15) was 66% and the “Differential Count: Mono” value (sheep #498, 10 mg/day, Day 15) was 3%. The “Differential Count: Seg” value (sheep #498, 10 mg/day, Day 15) was 23%, the “Gamma GT” value (sheep #498, 10 mg/day, Day 15) was 90 U/L and the Glucose (sheep #498, 10 mg/day, Day 15) was 78 mg/dL. The Hct (sheep #498, 10 mg/day, Day 15) was 44.8%, the Hgb (sheep #498, 10 mg/day, Day 15) was 13.3 g/dL and the MCH (sheep #498, 10 mg/day, Day 15) was 9.2 pg. The MCHC (sheep #498, 10 mg/day, Day 15) was 29.7 g/dL, the MCV (sheep #498, 10 mg/day, Day 15) was 31.1 fL and the “Na+” value (sheep #498, 10 mg/day, Day 15) was 151 mEq/l. For the same compound, the “Platlet Count” value (sheep #498, 10 mg/day, Day 15) was 42000 µL⁻¹, the RBC (sheep #498, 10 mg/day, Day 15) was 1.439e+07 µL⁻¹ and the WBC (sheep #498, 10 mg/day, Day 15) was 8600 µL⁻¹. The “Total Bili” value (sheep #498, 10 mg/day, Day 15) was 0.1 mg/dL, the Creatinine (sheep #498, 10 mg/day, Day 15) was 1.8 mg/dL and the Albumin (sheep #498, 10 mg/day, Day 15) was 3.4 g/dL. The “K+” value (sheep #498, 10 mg/day, Day 15) was 5.1 mEq/l, the Phos (sheep #498, 10 mg/day, Day 15) was 6.4 Mg/dl and the “Total Prot” value (sheep #498, 10 mg/day, Day 15) was 6.7 g/dL. The ALT (sheep #498, 10 mg/day, Day 43) was 8.0 U/L, the AST (sheep #498, 10 mg/day, Day 43) was 89 U/L and the “Alk Phos” value (sheep #498, 10 mg/day, Day 43) was 87 U/L. The BUN (sheep #498, 10 mg/day, Day 43) was 13 Mg/dl, the CPK (sheep #498, 10 mg/day, Day 43) was 203 U/L and the Cholesterol (sheep #498, 10 mg/day, Day 43) was 67 Mg/dl. For the same compound, the “Differential Count: Eosin” value (sheep #498, 10 mg/day, Day 43) was 3%, the “Differential Count: Lymph” value (sheep #498, 10 mg/day, Day 43) was 63% and the “Differential Count: Mono” value (sheep #498, 10 mg/day, Day 43) was 1%. For the same compound, the “Differential Count: Seg” value (sheep #498, 10 mg/day, Day 43) was 33%, the “Gamma GT” value (sheep #498, 10 mg/day, Day 43) was 65 U/L and the Glucose (sheep #498, 10 mg/day, Day 43) was 77 mg/dL. The Hct (sheep #498, 10 mg/day, Day 43) was 34.7% and the Hgb (sheep #498, 10 mg/day, Day 43) was 10.5 g/dL.
